# Measurements published in patent US9974755B2, “Induced expression of brain derived neurotrophic factor (BDNF) for treatment of neuromuscular, neurodegenerative, autoimmune, developmental and/or metabolic diseases” (Mitochon Pharmaceuticals, Inc., priority 2015, dated 2018).
# Entries after “also recorded” stand apart in the source; their conditions may differ.
# Experiments:
# [1] = tested on: Experimental Autoimmune Encephalomyelitis (EAE); test: Clinical scores in the EAE mouse model of MS; assay type: in vivo; details: FIG. 2c
# [2] = tested on: SIRT3 KO mice; test: 6-OHDA dopaminergic degeneration, rotarod in SIRT3 KO mice (Parkinson's); assay type: in vivo, mouse; details: 14-Days oral gavage, 6-OHDA in right striatum, FIG. 7b
# Procedure: (§1) The merits of treating Parkinson's Disease with MP101 (DNP) was evaluated in wildtype mice and SIRT3 KO mice with 6-OHDA injections after two weeks of MP101 treatment. We examined the neuroprotective effects of varying MP-101 doses (0.5, 1, 5 mg/kg) against dopaminergic degeneration of nigrostriatal neurons induced by a single unilateral stereotaxic injection of neurotoxin 6-hydroxydopamine (6-OHDA) in the right striatum of the brain of 2-3 month old male C57Bl/6 mice or SIRT3 KO mice. SIRT3 KO is a model of a heightened sensitivity to glutamate-induced calcium overload and excitotoxicity, and oxidative and mitochondrial stress, therefore ideal for evaluating Parkinson's Disease, Huntington's Disease and temporal lobe epilepsy.
# (§2) FIGS. 7a and 7b show the effects of DNP (MP101) treatment for 14-Days by oral gavage in protecting dopaminergic neuronal loss when the right striatum is injected with 6-OHDA after the last day.
# [3] = tested on: C57Bl/6 mice; test: 6-OHDA dopaminergic degeneration, cylinder test in wildtype mice (Parkinson's); assay type: in vivo, mouse
# Procedure: as §1, §2
# [4] = tested on: N171-82Q HD mice; test: MRI brain volume in N171-82Q Huntington's Disease mice; assay type: in vivo, mouse; details: N171-82Q HD mice vs HD placebo
# Procedure: (§3) MP101 (DNP) was used in a mouse model of Huntington's Disease, the “Fragment Model” N171-82 HD mice, to determine its neuroprotective effects. The N171-82 HD mice were treated with MP101 at 0.5, 1 and 5 mg/kg by oral gavage daily for greater than 17-weeks. At the age of 26-weeks (17-weeks of treatment), the mice were tested for changes in behavioral, loss of brain volume, spiny neurons and general neurons. FIGS. 8a, 8b, 8c, 8d, 8e, and 8f show the effects of DNP (MP101 drug treatment).
# (§4) FIGS. 8a-8f show the effects of MP101 in the Huntington's Disease model N171-82Q after 13-weeks (age 22 weeks) and/or 17-weeks (age 26-weeks) of treatment with DNP.
# [5] = tested on: wildtype mice; test: Kanic acid model of epilepsy, seizure time; assay type: in vivo, mouse; details: FIG. 6
# Procedure: DNP was also evaluated for a treatment of Epilepsy. The kanic acid model is an acute model of epilepsy caused by an injection in the right hippocampus of an analogue of glutamate (kanic acid) that over-stimulates the neurons causing death.
# [6] = tested on: Experimental Autoimmune Encephalomyelitis (EAE); test: Spinal cord electron microscopy in the EAE mouse model of MS; assay type: in vivo; details: 5 mg/kg, Day-16 (peak of onset), vs placebo, FIG. 2d
# [7] = tested on: Mecp2 mutant mice; test: Rotarod in Mecp2 mutant mice, a model of Rett Syndrome; assay type: in vivo, mouse; details: 8-weeks of age; 0.5, 1 and 5 mg/kg oral gavage vs mutant vehicle; FIG. 3a
# Procedure: (§5) MP101 was tested in a model of Rett Syndrome using Mecp2 mutant mice. Rett Syndrome is a developmental disorder in young girls, with first symptoms starting at about 18-months of age, including reduced head growth. FIGS. 3a, 3b, 3c and 4 show the effects of treating these mutant mice with MP101 at 0.5, 1 mg/kg and 5 mg/kg by oral gavage.
# In FIGS. 3a and 3b, Mecp2 mutant mice, a model of Rett Syndrome, were treated with MP101 (DNP) at 6-weeks of age and tested on their coordination to walk on a rotating cylinder (rotarod). Wildtype mice are used as a benchmark for general decline in behavior compared to Mecp2 mutant mice treated with Vehicle, 0.5 mg/kg MP101, 1 mg/kg MP101 and 5 mg/kg MP101 by oral gavage.
# [8] = tested on: APP/PS1 mice; test: Morris Water Maze in APP/PS1 mice (Alzheimer's); assay type: in vivo, mouse; details: 0.5, 1 and 5 mg/kg oral gavage for 4-months vs Vehicle, FIGS. 5a-5c
# Procedure: In addition, Alzheimer's Disease, representing about 70% of all dementia cases, was evaluated using the APP/PS1 mice, which express the APPswe mutation and PS1deltaE9 mutation and develop relatively rapid Aβ pathology and cognitive deficits. At 4-months of age, the APP/PS1 mice were treated for 4-months by oral gavage delivery with MP101 (DNP) at 0.5, 1 and 5 mg/kg. […] The amount of time spent in the quadrant is an indicator of whether the mice remember the general location, with increased time indicating increased memory.
# The amount of time spent in the quadrant is an indicator of whether the subject remembers the general location.
# [9] = tested on: N171-82Q HD mice; test: Tapered beam and balance beam motor function in N171-82Q HD mice; assay type: in vivo, mouse; details: after 17-weeks of treatment, FIG. 8f
# Procedure: as §3, §4
# [10] = tested on: BDNF; test: BDNF protein levels by immunoblot in the EAE mouse model of MS; assay type: in vivo; details: for Intensity of the BDNF band (immunoblot): lumbal spinal cord, Day 42, treated Day 7 to Day 21, FIG. 2a
# Description: The tissue was taken on Day 42 of the study during the recovery phase from the lumbal spinal cord of representative mice that were immunized on Day 1 with the MOG peptide, then treated with MP101 starting on Day 7 and stopping on Day 21. […] Untreated animals are shown as naïve. The changes in BDNF levels are therefore 3-weeks post-treatment with DNP (aka MP101).
# [11] = tested on: Mecp2 mutant mice; test: Clasping test in Mecp2 mutant mice; assay type: in vivo, mouse; details: 1 mg/kg, 12-weeks of age, 1-month oral gavage, FIG. 4
# Procedure: as §5
# [12] = tested on: BDNF; test: BDNF mRNA in brain by semi quantitative PCR after two weeks daily oral gavage; assay type: in vivo, Wildtype C57BL/6J mice; details: FIG. 1
# Procedure: As described herein below, mitochondrial uncoupler DNP was tested in a range of doses in mice from 0.5 mg/kg of DNP to 10 mg/kg of DNP under oral chronic treatment to titrate the amount of drug in the brain required to induce increases of BDNF endogenously within the brain. […] Therefore, it was discovered that there is a specific and limited dose range of DNP that is necessary to achieve statistically significant survival and behavioral benefit for a host of diseases that benefit from increased BDNF levels. […]
# [13] = acute single dose post-ischemia; cited from earlier work
# [14] = tested on: N171-82Q HD mice; test: Neuronal biomarkers DARPP32 and PSD95 in N171-82Q HD mice; assay type: in vivo, mouse
# Procedure: as §3, §4
smiles,measurement,setting,value
"O=[N+]([O-])c1ccc(O)c([N+](=O)[O-])c1 [DNP, 2,4-dinitrophenol]",Progression of the phenotype on clinical scores,[1],attenuation of disease progression
same,Motor coordination on rotating cylinder (rotarod),[2],improved motor coordination
same,Protection of dopaminergic neurons from 6-OHDA,"[3]; 0.5, 1, 5 mg/kg for two weeks, C57Bl/6 or SIRT3 KO mice, FIG. 7",protected the dopaminergic neurons
same,Percent of left and right paw touches on the wall (cylinder),"[3]; wildtype mice, 14-Days oral gavage, 6-OHDA in right striatum, FIG. 7a",improved
same,Brain volume loss in the cortex (MRI),[4]; FIG. 8b,minor loss
same,Brain volume loss in the striatum (MRI),[4]; FIG. 8c,minor loss
same,Seizure time after kanic acid injection,"[5]; 1, 5 and 10 mg/kg oral gavage for 2-weeks before injection",shortening of seizure time
same,Neural protection from over-stimulation by kanic acid,"[5]; 1, 5 and 10 mg/kg oral gavage for 2-weeks, relative to Vehicle",provided neural protection
same,Myelin sheaths surrounding the axons and axons (electron microscopy),[6],striking axonal protection
same,Myelin sheaths surrounding the axons and axons (electron microscopy),[6]; listed as MP101,completely intact
same,Ability to walk on the rotarod,[7],fall less and can handle higher speeds of rotation
same,"Cognition / short term memory in Morris Water Maze (distance, time in quadrant, entries)",[8],improved in short term memory
same,"Cognition / short term memory in Morris Water Maze (distance, time in quadrant, entries)",[8]; listed as MP101,improved cognition
same,Motor function in the balance beam,[9],improves motor function
same,Motor function in the tapered beam,[9],improves motor function
same,Intensity of the BDNF band (immunoblot),[10]; 0.5 mg/kg and 1 mg/kg vs placebo,increases
same,Intensity of the BDNF band (immunoblot),[10]; 5 mg/kg,plateau effect
same,BDNF protein level 3-weeks post treatment,"[10]; EAE model, after 2 weeks of treatment, FIG. 2b",statistically elevated level of BDNF protein; also recorded: BDNF levels are elevated in the brain; also recorded: lasting effect
same,Clasping test,[11],shows an effect
same,BDNF levels in the brain at the highest dose compared with lower doses,"[12]; 10.0 mg/kg daily oral gavage, bell-shaped curve",reduced level of BDNF compared with the next two lower doses; also recorded: less BDNF is expressed
same,"BDNF levels in the brain (mRNA, delta-delta CT, percent change relative to placebo)","[12]; 0.5, 1.0, 5.0 and 10.0 mg/kg daily oral gavage",induce BDNF within the brain; also recorded: increases BDNF levels in the brain
same,Infarct volume,[13],reduce infarct volume
same,ROSs species,[13],lower ROSs species
same,"Medium spiny neurons, biomarker DARPP32","[14]; 26-weeks of age, FIG. 8d",preserves medium spiny neurons
same,"General neuronal loss, postsynaptic protein PSD95 levels","[14]; N171-82Q HD mice, FIG. 8e",preserves general neuronal loss
